Values quoted from earlier work as cited in patent US20230398047A1, “COMPOSITION COMPRISING SKIN CARE ACTIVE INGREDIENT AND TWO POLYGLYCERYL FATTY ACID ESTERS” (L'OREAL, priority 2021, published 2023).

Details: octan-1-ol/water; values said to be known or calculated

Compound	logP
CC(O)C[C@H]1OC[C@@H](O)[C@H](O)[C@H]1O (stereo partly drawn) [HYDROXYPROPYL TETRAHYDROPYRANTRIOL, C-beta-D-xylopyranoside-2-hydroxpropane]	HYDROXYPROPYL TETRAHYDROPYRANTRIOL (logP = −1.5)
NC(=O)c1cccnc1 [NIACINAMIDE, niacinamide, reference compound]	NIACINAMIDE (LogP = −0.37)

The remaining lines, values ahead:

logP	Compound
3-O-ETHYL ASCORBIC ACID (LogP = −1.3)	CCOC1=C(O)C(=O)O[C@@H]1[C@@H](O)CO [3-O-ETHYL ASCORBIC ACID, 3-O-ethyl ascorbic acid]
ASCORBYL GLUCOSIDE (logP = −3.4)	O=C1O[C@H]([C@@H](O)CO)C(O)=C1O[C@H]1O[C@H](CO)[C@@H](O)[C@H](O)[C@H]1O [ASCORBYL GLUCOSIDE, ascorbyl glucoside]
PHENYLETHYL RESORCINOL(logP = 3.07)	CC(c1ccccc1)c1ccc(O)cc1O (centres unmarked) [PHENYLETHYL RESORCINOL, 4-(1-phenylethyl)-1,3-benzenediol]
